Data reported in patent publication US20220259164A1, “USE OF AMINOTHIOL COMPOUNDS AS CEREBRAL NERVE OR HEART PROTECTIVE AGENT” (SHANGHAI KECHOW PHARMA, INC., priority 2019, published 2022).
Where a SMILES comes first, the peptide text is derived from it. [ ]: non-standard residue; d: D form. NMeC = CN[C@@H](CS)C(=O)O

Key:
[1] = Body weight of cisplatin-induced SD rats; assay type: in vivo, rat; conditions: 30 min prior to cisplatin 5 mg/kg i.p.: compound B 200 mg/kg i.p., compound A 800 mg/kg p.o., amifostine 200 mg/kg i.p.; weighed daily
Method: Healthy male SPF grade SD rats (body weight 250-300 g) were selected. Cisplatin+compound B group: 5 mg/kg i.p.+compound B at 200 mg/kg i.p., with compound B being administered 30 min prior to cisplatin administration Cisplatin+amifostine group: 5 mg/kg i.p.+AMI at 200 mg/kg i.p., with AMI being administered 30 min prior to cisplatin administration Cisplatin+compound A group: 5 mg/kg i.p.+compound A at 800 mg/kg p.o., with compound A being administered 30 min prior to cisplatin administration (1) The SD rats used in the experiment were weighed, labeled, and evenly divided into 5 groups, with 3 SD rats in each group. (2) The compound B, compound A, and AMI groups were respectively administered at the planned concentrations. […] (3) The rats were weighed and recorded daily, and on day 5, blood was taken from the intraocular canthus of the SD rats and placed in an anticoagulant tube.

[2] = system: rat myocardial infarction model (coronary ligation 30 min, reperfusion); test: Myocardial infarction model: myocardial infarction range (TTC staining); assay type: in vivo; conditions: for Infarction range (%): x ± s, n = 10; for Improvement rate (%) of myocardial infarction range: compared with model group
Method: 1. The rats were grouped and administered according to the following methods (2) Compound B (i.v.) at 100 mg/kg (3) Compound A (i.v.) at 100 mg/kg (4) Compound A (oral) at 500 mg/kg (5) Isosorbide mononitrate injection (i.v.) at 1 mg/kg (equivalent to clinical equivalent dose). There were 10 rats in each group, and the rats were administered intravenously immediately after 30 min of ischemia and reperfusion, i.v. 10% 1 min+i.v. drip 90% 30 min. The administration volume was 2 ml/rat. Compound A (oral) at 500 mg/kg was administered intragastrically 2 h after reperfusion when the animal was awake, and the administration volume was 10 ml/kg. Note: Compounds A and B used in this example were in the form of hydrochloride salts thereof. Given intraperitoneal injection of 3% sodium pentobarbital at 60 mg/kg for general anesthesia, the rats were fixed on an operating table in the supine position. The surgical field of the anterolateral chest was depilated and routinely disinfected. The skin and muscular layer were cut open, purse-string suture was performed on the muscular layer, the chest was opened on the left at the fourth intercostal space, and the heart was pulled out with a ring-shaped retractor. At the position of the anterior descending coronary artery 3-4 mm below the left atrial appendage, a 6/0 damage-free silk thread was threaded, and a nylon thread with a diameter of 1.6 mm was juxtaposed and ligated together with the anterior descending coronary artery, while the other end was left outside the body for later use. The heart was placed back into the chest cavity, the air in the chest cavity was emptied, and the chest cavity was closed. 30 min after ligation, the nylon thread was carefully removed for reperfusion. Compared with the normal lead II electrocardiogram (ECG-II), ST segment elevation in ECG-II by 0.1 mV or more 30 min after coronary artery ligation was regarded as successful ischemia.

[3] = system: radiation intestinal injury in C57 male mice; test: Protective effect on radiation intestinal injury (HE staining of small intestine); assay type: in vivo; conditions: 517 mpk i.p. 30 min before 16 Gy abdominal irradiation; fifth day
Method: (§1) C57 male mice were randomly divided into 4 groups, namely a blank control group, an irradiation group, a compound B (TFA) irradiation group, and an AMI irradiation group, respectively. The mode of administration for each group was an intraperitoneal injection, 30 min before irradiation. The dosage of administration was 517 mpk, and the abdominal irradiation dose was 16 Gy. On the fifth day, the small intestine tissue was taken for HE staining.

[4] = system: radiation lung injury in C57 male mice; test: Protective effect on radiation lung injury (HE staining of lung); assay type: in vivo; conditions: 517 mpk i.p. 30 min before 17 Gy right lung irradiation; months 2, 4, 6
Method: as §1, with “the” for “the abdominal”, “dose to the right lung” for “dose”, “17” for “16”, “[…] Lung tissues were taken at months 2, 4, and 6 for HE staining” for “staining.”

[5] = system: radiation-induced hematopoietic system injury in C57 male mice; test: Protective effect on radiation-induced hematopoietic system injury (peripheral blood indicators); assay type: in vivo; conditions: 517 mpk i.p. 30 min before 4 Gy whole body irradiation; day 15
Method: C57 male mice were randomly divided into 6 groups, namely a blank control group, an irradiation group, a compound B (TFA) group, an AMI group, a compound B (TFA) irradiation group, and an AMI irradiation group, respectively. The mode of administration for each group was an intraperitoneal injection, 30 min before irradiation. The dosage of administration was 517 mpk, and the whole body irradiation dose was 4 Gy. On day 15, samples were taken for detecting peripheral blood indicators.

SMILES | Change in body weight of cisplatin-induced SD rats [1] | Infarction range (%) ([2]; compound A (hydrochloride) i.v. 100 mg/kg after 30 min ischemia and reperfusion) | Improvement rate (%) of myocardial infarction range ([2]; compound A (hydrochloride) i.v. 100 mg/kg) [%] | Infarction range (%) ([2]; compound A (hydrochloride) oral 500 mg/kg 2 h after reperfusion) | Improvement rate (%) of myocardial infarction range ([2]; compound A (hydrochloride) oral 500 mg/kg) [%] | Changes in the intestinal villi structure (HE staining) [3] | Inflammatory cell infiltration / radiation pneumonitis in lung (HE staining) [4] | LY % and NE % in the peripheral blood (abnormal differentiation) [5] | Numbers of WBC, RBC and PLT in the peripheral blood [5] | Infarction range (%) ([2]; compound B (hydrochloride) i.v. 100 mg/kg after 30 min ischemia and reperfusion) | Improvement rate (%) of myocardial infarction range ([2]; compound B (hydrochloride) i.v. 100 mg/kg) [%]
CNC(=O)[C@H](CS)NC(=O)[C@H](CS)NC [Compound A, (R)-3-mercapto-N—((R)-3-mercapto-1-(methylamino)-1-oxoprop-2-yl)-2-(methylamino)propionamide] (H-[NMeC]-Cys-NHMe) | the degree of decrease was significantly better than that of the cisplatin group | 30.5 ± 11 | 24.5 | 28.9 ± 12.2 | 28.5 | – | – | – | – | – | –
CNC(=O)[C@H](CS)NC(=O)[C@H](CS)NC(=O)[C@H](CS)NC [Compound B, (R)-3-mercapto-N—((R)-3-mercapto-1-(((R)-3-mercapto-1-(methylamino)-1-oxoprop-2-yl)amino)-1-oxoprop-2-yl)-2-(methylamino)propionamide] (H-[NMeC]-Cys-Cys-NHMe) | the body weight increased rather than decrease | – | – | – | – | milder than that in the irradiation group | could partially relieve the inflammatory cell infiltration and reduce the occurrence of radiation pneumonitis | could alleviate this abnormal differentiation | could increase the numbers of such cells after irradiation | 30.2 ± 8.2 | 25.2
